From paper PMC4632126, “High specific selectivity and Membrane-Active Mechanism of the synthetic centrosymmetric α-helical peptides with Gly-Gly pairs” (Scientific Reports, 2015)
Where no end group is shown, it is not given here.

What was measured:
S. aureus ATCC29213 = format: cell-based, Staphylococcus aureus; conditions: ATCC 29213, 5 h
Method: (§1) Minimal bactericidal concentrations (MBCs) were measured using the method which has been adopted from National Committee for Clinical Laboratory Standards (NCCLS), with modifications. In short, 50 μL peptide solutions were pipetted into microtiter plates at various concentrations ranging from 1 to 128 μM. Freshly grown bacteria were added to the each well in a density of 0.5–1 × 10^6 CFUmL^−1. Microtiter plated was incubated at 37 °C for 5 h. Fifty microliters of each incubation mixture was further serially diluted (up to 10^−3 of the initial bacterial concentration), transferred on agar plates and incubated overnight. On the following day, the number of colonies was evaluated and the initial CFU/well retrospectively calculated. The minimum bactericidal concentrations (μM) were determined as the lowest concentration of the peptides that prevented more than 99.9% bacteria growth.

E. coli ATCC 25922 [1] = format: cell-based, Escherichia coli; conditions: ATCC 25922, 5 h
Method: as §1, with “In short, 50 μL peptide solutions were pipetted into microtiter plates at various concentrations ranging from 1 to 128 μM.” left out, “growth. […] The salt sensitivity of the peptides was measured using a modified method, as described previously. […] The subsequent steps were consistent with the MBCs determination method.” for “growth.”

[2] = system: 3 gram-positive strains tested; conditions: MHC/GM for 3 gram-positive strains; >128 counted as 256 μM
Method: as §1, with “In” for “Minimal bactericidal concentrations (MBCs) were measured using the method which has been adopted from National Committee for Clinical Laboratory Standards (NCCLS), with modifications. In”
(§2) The therapeutic index (TI) is calculated by the ration of the minimum hemolytic concentration (MHC) to the geometric mean of the MBC (GM) to evaluate cell selectivity of peptides.

[3] = system: human red blood cells (hRBCs); assay: Hemolytic activity; conditions: concentration causing 5% hemolysis of human red blood cells; about 1% hRBC in PBS, 37 °C, 1 h, OD 576 nm
Method: The hemolytic activity of each peptide was evaluated using a modified method, as described previously[21][22]. […] Then, the collected hRBCs were washed three times with PBS (pH 7.2), centrifuged at 1000 × g for 5 min, and resuspended in PBS (final concentration, approximately 1%). Next, 50 μL of the hRBC suspension was placed into a 96-well cell culture plate with 50 μL of test peptide solution in PBS at different concentrations, and the mixture was incubated at 37 °C for 1 h. After incubation, the plate was centrifuged at 1000 × g for 5 min, the supernatant was transferred to a new 96-well cell culture plate, and the release of hemoglobin was measured by monitoring optical density (OD) at 576 nm. Untreated hRBCs suspension was used as a negative control, and the hRBCs treated with 0.1% Triton X-100 were employed as positive controls. Each test was reproduced at least 3 times using 6 replicates. Percent hemolysis was calculated using the following equation:

E. coli UB1005 = format: cell-based, Escherichia coli; conditions: UB1005, 5 h
Method: as §1

E. coli ATCC 25922 [4] = format: cell-based, Escherichia coli; conditions: ATCC 25922, 5 h; remark: listed apart in the source
Method: as §1

[5] = system: 3 gram-negative strains tested; assay: Geometric mean of MBCs and therapeutic index, gram-negative strains; format: cell-based; conditions: MHC/GM for 3 gram-negative strains; >128 counted as 256 μM
Method: as §1, with “In” for “Minimal bactericidal concentrations (MBCs) were measured using the method which has been adopted from National Committee for Clinical Laboratory Standards (NCCLS), with modifications. In”
as §2

S. epidermidis ATCC12228 = format: cell-based, Staphylococcus epidermidis; conditions: ATCC12228, 5 h
Method: In short, 50 μL peptide solutions were pipetted into microtiter plates at various concentrations ranging from 1 to 128 μM. Freshly grown bacteria were added to the each well in a density of 0.5–1 × 10^6 CFUmL^−1. Microtiter plated was incubated at 37 °C for 5 h. Fifty microliters of each incubation mixture was further serially diluted (up to 10^−3 of the initial bacterial concentration), transferred on agar plates and incubated overnight. On the following day, the number of colonies was evaluated and the initial CFU/well retrospectively calculated. The minimum bactericidal concentrations (μM) were determined as the lowest concentration of the peptides that prevented more than 99.9% bacteria growth. Each test was reproduced at least 3 times using 6 replicates.

S. typhimurium ATCC14028 = format: cell-based, Salmonella typhimurium; conditions: ATCC14028, 5 h
Method: as §1

[6] = system: all of the 6 strains tested; assay: Geometric mean of MBCs and therapeutic index, all strains; format: cell-based; conditions: MHC/GM for all 6 strains; >128 counted as 256 μM
Method: as §1, with “In” for “Minimal bactericidal concentrations (MBCs) were measured using the method which has been adopted from National Committee for Clinical Laboratory Standards (NCCLS), with modifications. In”
as §2

[7] = system: Methicillin-resistant S. aureus ATCC 43300; conditions: S. aureus 43300 (methicillin-resistant); lowest concentration preventing more than 99.9% growth; 37 °C, 5 h; representative of three trials
Method: as §1, with “In” for “Minimal bactericidal concentrations (MBCs) were measured using the method which has been adopted from National Committee for Clinical Laboratory Standards (NCCLS), with modifications. In”

E. coli ATCC 25922 [8] = format: cell-based, Escherichia coli; conditions: ATCC 25922, 24 h
Method: The checkerboard titration method is commonly used to evaluate the synergy of different antibacterial combinations. First, 2-fold serial dilutions of the antibiotics and antimicrobial peptides were prepared. Subsequently, 50 μL each of different concentrations of antibiotics and of antimicrobial peptides was mixed and added into 100 μL of bacterial solution (containing approximately 0.5–1 × 10^6 CFU mL^−1) in each well of a 96-well plate. The plates were then incubated at 37 °C for 24 h. The subsequent steps were consistent with the MBCs determination method. The fractional inhibitory concentration (FIC) index (FICI) was calculated as follows: An FICI < 0.5 is considered to indicate synergy; 0.5 < FICI < 1.0 is considered additive; 1.0 < FICI < 4.0 is considered indifferent; and an FICI > 4.0 is considered antagonism.

S. aureus ATCC 29213 = format: cell-based, Staphylococcus aureus; conditions: ATCC 29213, 5 h
Method: as §1, with “In short, 50 μL peptide solutions were pipetted into microtiter plates at various concentrations ranging from 1 to 128 μM.” left out, “growth. […] The salt sensitivity of the peptides was measured using a modified method, as described previously. […] The subsequent steps were consistent with the MBCs determination method.” for “growth.”

Substance | Minimum bactericidal concentration (S. aureus ATCC29213) [µM] | MBC with CaCl2 (E. coli ATCC 25922 [1]) [µM] | MBC with FeCl3 (E. coli ATCC 25922 [1]) [µM] | MBC with KCl (E. coli ATCC 25922 [1]) [µM] | MBC with MgCl2 (E. coli ATCC 25922 [1]) [µM] | MBC with NH4Cl (E. coli ATCC 25922 [1]) [µM] | MBC with NaCl (E. coli ATCC 25922 [1]) [µM] | MBC with ZnCl2 (E. coli ATCC 25922 [1]) [µM] | MBC, control (E. coli ATCC 25922 [1]) [µM] | TI (therapeutic index), gram-positive [2] | MHC (minimum hemolytic concentration) [3] [µM] | Minimum bactericidal concentration (E. coli UB1005) [µM] | Minimum bactericidal concentration (E. coli ATCC 25922 [4]) [µM] | TI (therapeutic index), gram-negative [5] | Minimum bactericidal concentration (S. epidermidis ATCC12228) [µM] | Minimum bactericidal concentration (S. typhimurium ATCC14028) [µM] | TI (therapeutic index), all strains [6] | Minimum bactericidal concentration [7] [µM] | MBC with CaCl2 (S. aureus ATCC 29213) [µM] | MBC with FeCl3 (S. aureus ATCC 29213) [µM] | further results
GKLWLKGGKLWLKGGKLWLKGGKLWLKG-NH2 [GG4] | 128 | 4 | 4 | 4 | 4 | 4 | 4 | 4 | 4 | 0.10 | 16 | 8 | 4 | 1.59 | >128 | 32 | 0.40 | 128 |  |  | 
AKLWLKAAKLWLKAAKLWLKA-NH2 [AA3] | 4 | 2 | 2 | 1 | 2 | 2 | 2 | 1 | 2 | 2 | 8 | 2 | 2 | 3.17 | 4 | 4 | 2.52 | 4 | 4 | 4 | FIC index in combination with Ceftazidime (E. coli ATCC 25922 [8]): 1; FIC index in combination with Chloramphenicol (E. coli ATCC 25922 [8]): 1; FIC index in combination with Ciprofloxacin (E. coli ATCC 25922 [8]): 2; MBC with KCl (S. aureus ATCC 29213): 4 µM; MBC with MgCl2 (S. aureus ATCC 29213): 4 µM; MBC with NH4Cl (S. aureus ATCC 29213): 4 µM; MBC with NaCl (S. aureus ATCC 29213): 4 µM; MBC with ZnCl2 (S. aureus ATCC 29213): 4 µM; MBC, control (S. aureus ATCC 29213): 4 µM
GLWKGKLGLWKGKLGLWKGKL-NH2 [GG3s2] | 128 |  |  |  |  |  |  |  |  | 3.17 | >128 | 4 | 4 | 32 | 64 | 32 | 10.08 | 64 |  |  | 
GKLWLKGGKLWLKG-NH2 [GG2] | 128 | 16 | 4 | 4 | 16 | 4 | >128 | 4 | 4 | 2.52 | >128 | 32 | 4 | 12.70 | 128 | 64 | 5.66 | 64 | >128 | 128 | FIC index in combination with Ceftazidime (E. coli ATCC 25922 [8]): 2; FIC index in combination with Chloramphenicol (E. coli ATCC 25922 [8]): 1; FIC index in combination with Ciprofloxacin (E. coli ATCC 25922 [8]): 2; FIC index in combination with Streptomycin (E. coli ATCC 25922 [8]): 1; MBC with KCl (S. aureus ATCC 29213): 128 µM; MBC with MgCl2 (S. aureus ATCC 29213): >128 µM; MBC with NH4Cl (S. aureus ATCC 29213): 128 µM; MBC with NaCl (S. aureus ATCC 29213): >128 µM; MBC with ZnCl2 (S. aureus ATCC 29213): 128 µM; MBC, control (S. aureus ATCC 29213): 128 µM
AKLWALKAKLWALKAKLWALK-NH2 [AA3s1] | 16 |  |  |  |  |  |  |  |  | 0.63 | 16 | 4 | 2 | 3.17 | 64 | 16 | 1.41 | 16 |  |  | 
AKLWLKAAKLWLKAAKLWLKAAKLWLKA-NH2 [AA4] | 32 | 8 | 8 | 4 | 8 | 8 | 64 | 4 | 8 | 0.03 | 1 | 32 | 8 | 0.03 | 32 | 128 | 0.03 | 32 | 128 | 32 | MBC with KCl (S. aureus ATCC 29213): 32 µM; MBC with MgCl2 (S. aureus ATCC 29213): 32 µM; MBC with NH4Cl (S. aureus ATCC 29213): 32 µM; MBC with NaCl (S. aureus ATCC 29213): 32 µM; MBC with ZnCl2 (S. aureus ATCC 29213): 32 µM; MBC, control (S. aureus ATCC 29213): 32 µM
